Experimental data: doi:10.1101/2024.08.19.608619, “Discovery of potent SARS-CoV-2 nsp3 macrodomain inhibitors uncovers lack of translation to cellular antiviral response” (bioRxiv, 2024)
Where “and” joins values, the source holds several entries; their conditions need not be identical. Equal values may be shown once. Read-outs that look alike come from different tables or passages of the source.

How the values were obtained:
H2 (h) = biological target: T1, H2 (h) (Homo sapiens, UniProt P25021); assay: In vitro CEREP profiling, H2 (h) (antagonist radioligand); assay type: binding; settings: test compound concentration 10 uM
T1 construct: purchased Eurofins Cerep (SafetyScreen44), recognised from the panel format
Text: (§1) Supplement media-1.zip/Safety_Panel_Profile.csv, table | column: perc_inhibition

COX2(h) = biological target: T2, COX2(h) (Homo sapiens, UniProt P35354); assay: In vitro CEREP profiling, COX2(h); assay type: biochemical; settings: test compound concentration 10 uM, Enzyme and Cell-based assays
T2 construct: purchased Eurofins Cerep (SafetyScreen44), recognised from the panel format
T2 sequence (P35354 18-604): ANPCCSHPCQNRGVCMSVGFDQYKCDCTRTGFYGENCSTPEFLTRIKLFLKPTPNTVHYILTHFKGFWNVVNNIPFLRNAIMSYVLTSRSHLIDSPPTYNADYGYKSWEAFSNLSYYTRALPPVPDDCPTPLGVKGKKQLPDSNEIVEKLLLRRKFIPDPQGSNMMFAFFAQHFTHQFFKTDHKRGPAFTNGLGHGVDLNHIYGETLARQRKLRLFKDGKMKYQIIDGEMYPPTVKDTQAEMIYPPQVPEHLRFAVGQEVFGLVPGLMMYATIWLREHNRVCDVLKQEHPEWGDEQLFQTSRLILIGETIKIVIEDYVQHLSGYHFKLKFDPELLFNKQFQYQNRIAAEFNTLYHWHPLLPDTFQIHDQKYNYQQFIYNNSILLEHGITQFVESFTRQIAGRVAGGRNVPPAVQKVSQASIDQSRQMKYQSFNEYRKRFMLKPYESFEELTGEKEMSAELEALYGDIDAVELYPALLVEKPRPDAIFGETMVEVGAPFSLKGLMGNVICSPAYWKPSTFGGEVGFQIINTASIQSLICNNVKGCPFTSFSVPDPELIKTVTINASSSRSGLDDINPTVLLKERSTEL
Text: as §1

alpha1A (h) = biological target: T3, alpha1A (h) (Homo sapiens, UniProt P35348); assay: In vitro CEREP profiling, alpha1A (h) (antagonist radioligand); assay type: binding; settings: test compound 10 uM
T3 construct: purchased Eurofins Cerep (SafetyScreen44), recognised from the panel format
T3 sequence (P35348 1-466): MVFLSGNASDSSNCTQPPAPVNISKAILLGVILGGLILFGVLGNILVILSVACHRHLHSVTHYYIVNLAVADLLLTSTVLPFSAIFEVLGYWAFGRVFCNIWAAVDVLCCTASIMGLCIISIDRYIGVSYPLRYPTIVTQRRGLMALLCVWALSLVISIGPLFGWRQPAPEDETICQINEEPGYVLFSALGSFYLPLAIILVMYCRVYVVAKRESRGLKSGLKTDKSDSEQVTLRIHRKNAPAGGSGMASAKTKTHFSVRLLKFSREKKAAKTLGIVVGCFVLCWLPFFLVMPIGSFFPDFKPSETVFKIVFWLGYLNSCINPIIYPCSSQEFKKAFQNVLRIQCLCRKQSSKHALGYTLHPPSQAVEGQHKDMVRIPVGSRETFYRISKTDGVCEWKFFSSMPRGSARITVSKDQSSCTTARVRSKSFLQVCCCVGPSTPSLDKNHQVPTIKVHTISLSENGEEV
Text: as §1

Na+ channel (site 2) = assay: In vitro CEREP profiling, Na+ channel (site 2) (antagonist radioligand); assay type: binding; settings: test compound concentration 10 uM
Text: as §1

A2A (h) = biological target: T4, A2A (h) (Homo sapiens, UniProt P29274); assay: In vitro CEREP profiling, A2A (h) (agonist radioligand); assay type: binding; settings: test compound 10 uM
T4 construct: purchased Eurofins Cerep (SafetyScreen44), recognised from the panel format
Text: as §1

Protein binding = assay type: in vitro ADME
Text: Supplement media-1.zip/Protein_Binding.csv, table | column: fu; perc_bound; perc_free; perc_recovered

Lck kinase (h) = biological target: T5, Lck kinase (h) (Homo sapiens, UniProt P06239); assay: In vitro CEREP profiling, Lck kinase (h); assay type: biochemical; settings: test compound concentration 10 uM, Enzyme and Cell-based assays
T5 construct: purchased Eurofins Cerep (SafetyScreen44), recognised from the panel format
Text: as §1

PDE3A (h) = biological target: T6, PDE3A (h) (Homo sapiens, UniProt Q14432); assay: In vitro CEREP profiling, PDE3A (h); assay type: biochemical; settings: test compound concentration 10 uM, Enzyme and Cell-based assays
T6 construct: purchased Eurofins Cerep (SafetyScreen44), recognised from the panel format
Text: as §1

[1] = test system: Ca2+ channel (L, dihydropyridine site); assay: In vitro CEREP profiling, Ca2+ channel (L, dihydropyridine site) (antagonist radioligand); assay type: binding; settings: test compound concentration 10 uM
Text: as §1

D2S (h) = biological target: T7, D2S (h) (Homo sapiens, UniProt P14416); assay: In vitro CEREP profiling, D2S (h) (agonist radioligand); assay type: binding; settings: test compound 10 uM
T7 construct: purchased Eurofins Cerep (SafetyScreen44), recognised from the panel format
Text: as §1

NaV1.5 = NaV1.5 (Homo sapiens, UniProt Q14524); assay: In vitro NaV1.5 cardiotoxicity; settings: top test concentration 30 uM
Text: Supplement media-1.zip/Cardiotoxicity.csv, table | column: ic50_rest_state; ic50_use_dep_block; perc_inhibition_rest_state; perc_inhibition_use_dep_block

[2] = In vitro dog hepatocyte stability; assay type: in vitro ADME
Text: Supplement media-1.zip/Hepatocyte_Stability.csv, table | column: clint; t_half

[3] = read-out: perc_inhibition (% inhibition of the binding of a ligand specific for each target)
[4] = In vitro dog plasma protein binding
[5] = In vitro fetal calf serum protein binding
[6] = In vitro human plasma protein binding
[7] = In vitro mouse plasma protein binding
[8] = In vitro rat plasma protein binding
[9] = NaV1.5, rest state, read-out: ic50_rest_state
[10] = NaV1.5, use dependent block, read-out: ic50_use_dep_block

T5 sequence (P06239 whole entry): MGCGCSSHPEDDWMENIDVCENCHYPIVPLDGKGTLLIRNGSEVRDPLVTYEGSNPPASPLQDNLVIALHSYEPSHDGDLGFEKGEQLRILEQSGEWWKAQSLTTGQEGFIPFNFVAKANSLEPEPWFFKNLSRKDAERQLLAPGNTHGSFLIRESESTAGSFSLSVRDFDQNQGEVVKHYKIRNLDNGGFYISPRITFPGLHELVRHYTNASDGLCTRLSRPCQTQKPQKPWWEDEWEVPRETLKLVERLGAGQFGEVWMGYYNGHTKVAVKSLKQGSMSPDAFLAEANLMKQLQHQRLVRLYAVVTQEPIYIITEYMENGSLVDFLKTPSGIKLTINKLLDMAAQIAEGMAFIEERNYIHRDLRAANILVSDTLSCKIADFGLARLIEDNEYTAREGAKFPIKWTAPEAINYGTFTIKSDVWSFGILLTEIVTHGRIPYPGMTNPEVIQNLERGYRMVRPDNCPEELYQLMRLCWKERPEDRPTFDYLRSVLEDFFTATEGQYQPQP
T1 sequence (P25021 whole entry): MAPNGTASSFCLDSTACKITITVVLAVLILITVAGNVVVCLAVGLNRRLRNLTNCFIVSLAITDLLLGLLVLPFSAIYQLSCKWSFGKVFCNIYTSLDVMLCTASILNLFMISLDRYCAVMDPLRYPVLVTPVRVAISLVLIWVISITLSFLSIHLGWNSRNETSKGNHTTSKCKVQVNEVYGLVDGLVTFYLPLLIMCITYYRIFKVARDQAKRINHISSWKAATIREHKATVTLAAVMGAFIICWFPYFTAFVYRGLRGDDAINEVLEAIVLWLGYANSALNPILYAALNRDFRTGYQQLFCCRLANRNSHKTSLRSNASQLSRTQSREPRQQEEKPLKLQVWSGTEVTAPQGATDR
T6 sequence (Q14432 whole entry): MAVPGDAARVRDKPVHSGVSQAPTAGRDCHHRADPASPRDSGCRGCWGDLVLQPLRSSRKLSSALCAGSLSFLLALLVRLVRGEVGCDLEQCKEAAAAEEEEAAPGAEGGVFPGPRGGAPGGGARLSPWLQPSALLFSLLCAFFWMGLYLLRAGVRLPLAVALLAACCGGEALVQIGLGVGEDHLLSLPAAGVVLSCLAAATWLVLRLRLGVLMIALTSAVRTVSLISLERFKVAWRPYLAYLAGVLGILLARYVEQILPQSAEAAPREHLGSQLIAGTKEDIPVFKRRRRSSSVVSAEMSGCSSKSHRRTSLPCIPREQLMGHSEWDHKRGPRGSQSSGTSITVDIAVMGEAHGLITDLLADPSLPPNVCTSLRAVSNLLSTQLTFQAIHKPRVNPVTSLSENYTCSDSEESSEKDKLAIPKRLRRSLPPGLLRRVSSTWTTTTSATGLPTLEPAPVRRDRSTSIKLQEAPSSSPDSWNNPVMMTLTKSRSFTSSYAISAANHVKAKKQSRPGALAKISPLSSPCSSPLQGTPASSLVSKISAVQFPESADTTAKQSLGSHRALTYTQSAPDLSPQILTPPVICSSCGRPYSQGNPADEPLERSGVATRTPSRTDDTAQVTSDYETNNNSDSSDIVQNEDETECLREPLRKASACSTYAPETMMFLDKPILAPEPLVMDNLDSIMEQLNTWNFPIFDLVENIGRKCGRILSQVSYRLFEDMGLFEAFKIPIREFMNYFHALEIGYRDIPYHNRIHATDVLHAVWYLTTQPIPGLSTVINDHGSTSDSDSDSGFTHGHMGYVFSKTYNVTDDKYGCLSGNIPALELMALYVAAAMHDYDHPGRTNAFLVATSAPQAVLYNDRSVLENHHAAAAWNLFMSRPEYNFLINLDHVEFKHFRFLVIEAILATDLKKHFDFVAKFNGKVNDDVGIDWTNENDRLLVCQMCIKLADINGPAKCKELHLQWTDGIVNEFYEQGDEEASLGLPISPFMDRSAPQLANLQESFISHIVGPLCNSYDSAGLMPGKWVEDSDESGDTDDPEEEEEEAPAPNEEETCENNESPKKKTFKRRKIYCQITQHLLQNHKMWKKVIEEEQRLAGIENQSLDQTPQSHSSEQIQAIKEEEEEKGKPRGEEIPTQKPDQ
T4 sequence (P29274 whole entry): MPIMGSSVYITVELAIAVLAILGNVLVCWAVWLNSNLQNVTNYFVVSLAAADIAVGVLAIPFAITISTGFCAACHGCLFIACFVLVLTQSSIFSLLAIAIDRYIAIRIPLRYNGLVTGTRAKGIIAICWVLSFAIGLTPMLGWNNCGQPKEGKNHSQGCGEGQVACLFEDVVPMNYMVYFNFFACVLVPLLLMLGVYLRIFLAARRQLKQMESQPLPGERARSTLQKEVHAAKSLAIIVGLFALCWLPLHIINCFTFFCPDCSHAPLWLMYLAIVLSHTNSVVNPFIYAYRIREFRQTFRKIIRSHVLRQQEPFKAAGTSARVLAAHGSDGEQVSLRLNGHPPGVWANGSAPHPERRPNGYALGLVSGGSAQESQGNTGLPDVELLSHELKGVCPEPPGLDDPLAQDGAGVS
T7 sequence (P14416 1-414 isoform P14416-2): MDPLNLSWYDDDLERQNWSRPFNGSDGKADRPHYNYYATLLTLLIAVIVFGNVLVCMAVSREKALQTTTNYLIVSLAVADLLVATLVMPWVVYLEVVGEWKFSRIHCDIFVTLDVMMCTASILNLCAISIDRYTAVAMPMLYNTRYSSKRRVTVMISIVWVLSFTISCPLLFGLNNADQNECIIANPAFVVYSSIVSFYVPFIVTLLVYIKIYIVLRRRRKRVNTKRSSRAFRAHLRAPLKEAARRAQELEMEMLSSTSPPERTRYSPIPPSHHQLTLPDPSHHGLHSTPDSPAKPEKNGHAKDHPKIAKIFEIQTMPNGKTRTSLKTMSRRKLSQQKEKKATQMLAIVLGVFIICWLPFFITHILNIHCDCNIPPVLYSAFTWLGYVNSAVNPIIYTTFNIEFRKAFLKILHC
NaV1.5, sequence (Q14524 whole entry): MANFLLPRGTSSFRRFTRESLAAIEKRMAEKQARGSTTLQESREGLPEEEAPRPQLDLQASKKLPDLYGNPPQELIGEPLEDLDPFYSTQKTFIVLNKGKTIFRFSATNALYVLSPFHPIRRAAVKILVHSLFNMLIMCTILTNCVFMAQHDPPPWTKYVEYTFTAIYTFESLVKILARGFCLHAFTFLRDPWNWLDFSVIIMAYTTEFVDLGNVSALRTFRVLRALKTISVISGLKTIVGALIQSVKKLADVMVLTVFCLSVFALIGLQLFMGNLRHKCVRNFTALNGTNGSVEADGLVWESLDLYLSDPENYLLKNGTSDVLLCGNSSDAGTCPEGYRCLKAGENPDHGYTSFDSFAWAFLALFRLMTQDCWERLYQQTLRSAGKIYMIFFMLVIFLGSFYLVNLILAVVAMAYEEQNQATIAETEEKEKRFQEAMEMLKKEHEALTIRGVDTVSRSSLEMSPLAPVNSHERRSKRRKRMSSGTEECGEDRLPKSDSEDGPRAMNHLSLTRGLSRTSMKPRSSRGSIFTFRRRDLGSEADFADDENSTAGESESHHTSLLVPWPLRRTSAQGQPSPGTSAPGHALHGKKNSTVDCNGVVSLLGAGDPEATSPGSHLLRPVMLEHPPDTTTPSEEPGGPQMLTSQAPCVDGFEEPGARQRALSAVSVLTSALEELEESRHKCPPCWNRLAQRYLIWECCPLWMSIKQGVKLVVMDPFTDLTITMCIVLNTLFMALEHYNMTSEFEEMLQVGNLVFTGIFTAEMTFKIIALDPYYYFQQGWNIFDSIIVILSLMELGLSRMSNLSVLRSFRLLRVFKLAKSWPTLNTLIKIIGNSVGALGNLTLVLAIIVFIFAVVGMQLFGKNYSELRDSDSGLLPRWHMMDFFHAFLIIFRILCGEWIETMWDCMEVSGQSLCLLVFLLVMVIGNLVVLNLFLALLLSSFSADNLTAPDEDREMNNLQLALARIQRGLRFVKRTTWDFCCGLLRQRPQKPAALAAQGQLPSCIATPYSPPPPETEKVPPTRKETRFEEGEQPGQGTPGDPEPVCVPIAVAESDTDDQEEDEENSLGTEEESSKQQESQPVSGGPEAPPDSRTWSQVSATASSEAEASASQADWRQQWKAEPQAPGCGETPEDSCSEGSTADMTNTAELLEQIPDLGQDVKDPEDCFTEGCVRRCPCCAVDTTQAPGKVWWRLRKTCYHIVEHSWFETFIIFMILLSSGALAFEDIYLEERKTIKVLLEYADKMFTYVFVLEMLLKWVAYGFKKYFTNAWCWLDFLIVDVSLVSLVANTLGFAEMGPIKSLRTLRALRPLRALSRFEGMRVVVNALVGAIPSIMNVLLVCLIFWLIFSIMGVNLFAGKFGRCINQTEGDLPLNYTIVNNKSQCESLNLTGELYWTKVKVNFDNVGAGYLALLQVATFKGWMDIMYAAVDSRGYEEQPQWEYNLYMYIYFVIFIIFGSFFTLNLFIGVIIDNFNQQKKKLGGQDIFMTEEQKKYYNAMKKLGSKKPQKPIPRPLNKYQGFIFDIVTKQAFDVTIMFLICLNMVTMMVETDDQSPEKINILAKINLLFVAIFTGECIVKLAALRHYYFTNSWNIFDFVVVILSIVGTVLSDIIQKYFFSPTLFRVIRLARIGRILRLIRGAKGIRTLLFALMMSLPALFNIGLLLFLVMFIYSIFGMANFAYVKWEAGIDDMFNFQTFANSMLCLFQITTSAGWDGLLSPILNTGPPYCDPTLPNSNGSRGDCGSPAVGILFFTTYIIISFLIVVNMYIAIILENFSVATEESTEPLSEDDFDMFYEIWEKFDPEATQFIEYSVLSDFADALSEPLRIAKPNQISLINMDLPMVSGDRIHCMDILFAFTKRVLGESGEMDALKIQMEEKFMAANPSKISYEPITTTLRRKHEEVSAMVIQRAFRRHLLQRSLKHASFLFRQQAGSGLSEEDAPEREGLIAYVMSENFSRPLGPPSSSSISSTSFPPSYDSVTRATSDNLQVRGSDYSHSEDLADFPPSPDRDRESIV

SMILES	perc_inhibition (% inhibition of the binding of a ligand specific for each target) (Na+ channel (site 2))	perc_bound (Protein binding; [4])	perc_free (Protein binding; [4])	perc_recovered (Protein binding; [4])	fu (Protein binding; [5])	perc_bound (Protein binding; [5])	perc_free (Protein binding; [5])	perc_recovered (Protein binding; [5])	fu (Protein binding; [6])	perc_bound (Protein binding; [6])	perc_free (Protein binding; [6])	perc_recovered (Protein binding; [6])	fu (Protein binding; [7])	perc_bound (Protein binding; [7])	perc_free (Protein binding; [7])	perc_recovered (Protein binding; [7])	fu (Protein binding; [8])	perc_bound (Protein binding; [8])	perc_free (Protein binding; [8])	perc_recovered (Protein binding; [8])	other results
CC(C)C(Nc1ncnc2[nH]c(C(=O)NC3CCN(C)C3)cc12)c1ccc2c(c1)S(=O)(=O)CCC2 (stereo not drawn) [ASAP-0011198]	16%	83.5%	16.5%	87.93%	0.173	86.0% and 82.7%	14.0% and 17.3%	61.17% and 107.7%	0.271	74.5% and 72.9%	25.5% and 27.1%	81.11% and 116.7%	0.184	90.1% and 81.6%	9.91% and 18.4%	88.65% and 93.8%	0.164	87.5% and 83.6%	12.5% and 16.4%	93.33% and 104.0%	inhibition at 10 µM (H2 (h); [3]): -9%; inhibition at 10 µM (COX2(h); read-out: perc_inhibition: % inhibition of control enzyme activity, COX2(h)): 4%; inhibition at 10 µM (alpha1A (h); [3]): 38%; inhibition at 10 µM (A2A (h); [3]): -4%; fraction unbound (Protein binding; bovine, fetal calf serum, In vitro fetal calf serum protein binding): 0.14; fraction unbound (Protein binding; dog, plasma, In vitro dog plasma protein binding): 0.165; fraction unbound (Protein binding; human, plasma, In vitro human plasma protein binding): 0.255; fraction unbound (Protein binding; mouse, plasma, In vitro mouse plasma protein binding): 0.099; fraction unbound (Protein binding; rat, plasma, In vitro rat plasma protein binding): 0.125; inhibition at 10 µM (Lck kinase (h); read-out: perc_inhibition: % inhibition of control enzyme activity, Lck kinase (h)): 15%; inhibition at 10 µM (PDE3A (h); read-out: perc_inhibition: % inhibition of control enzyme activity, PDE3A (h)): 4%; perc_inhibition (% inhibition of the binding of a ligand specific for each target) [1]: -6%; inhibition at 10 µM (D2S (h); [3]): -7%; IC50 (NaV1.5; [9]): > 30 µM; inhibition at 30 µM (NaV1.5; NaV1.5, rest state, read-out: perc_inhibition_rest_state): 11%; IC50 (NaV1.5; [10]): > 30 µM; inhibition at 30 µM (NaV1.5; NaV1.5, use dependent block, read-out: perc_inhibition_use_dep_block): 11%; t_half [2]: > 231.0 min; hepatocyte CLint ([2]; hepatocytes): < 3 µL/min/1e6 cells
Cn1ncc(-c2cc3c(N[C@@H](c4ccc5c(n4)OCCO5)C(C)(C)C)ncnc3[nH]2)c1C#N [ASAP-0011221]	34%	98.8%	1.2%	99.93%	0.021	97.9%	2.13%	99.13%	0.006	99.4%	0.571%	99.19%	0.011	98.9%	1.06%	98.18%	0.018	98.2%	1.83%	90.47%	perc_inhibition (% inhibition of the binding of a ligand specific for each target) (H2 (h)): -10%; perc_inhibition: % inhibition of control enzyme activity, COX2(h) (COX2(h)): -9%; perc_inhibition (% inhibition of the binding of a ligand specific for each target) (alpha1A (h)): 54%; perc_inhibition (% inhibition of the binding of a ligand specific for each target) (A2A (h)): 52%; fu (Protein binding; [4]): 0.012; perc_inhibition: % inhibition of control enzyme activity, Lck kinase (h) (Lck kinase (h)): 47%; perc_inhibition: % inhibition of control enzyme activity, PDE3A (h) (PDE3A (h)): 37%; perc_inhibition (% inhibition of the binding of a ligand specific for each target) [1]: 21%; perc_inhibition (% inhibition of the binding of a ligand specific for each target) (D2S (h)): 13%; perc_inhibition_rest_state (NaV1.5; NaV1.5, rest state): 17.0%; IC50 (NaV1.5; [9]): > 30 µM; perc_inhibition_use_dep_block (NaV1.5; NaV1.5, use dependent block): 21.0%; IC50 (NaV1.5; [10]): > 30 µM; clint [2]: 3.81 uL/min/1E6 cells; t_half [2]: 182.0 min
C[C@H](C(=O)O)[C@@H](NC(=O)c1ncnc2[nH]ccc12)c1ccc(Br)cc1 [ASAP-0014722]	6%	96.1%	3.94%	103.6%	0.043	95.7%	4.3%	106.3%	0.026	97.4%	2.6%	99.4%	0.111	88.9%	11.1%	94.29%	0.044	95.6%	4.41%	93.34%	perc_inhibition (% inhibition of the binding of a ligand specific for each target) (H2 (h)): -21%; perc_inhibition: % inhibition of control enzyme activity, COX2(h) (COX2(h)): 7%; perc_inhibition (% inhibition of the binding of a ligand specific for each target) (alpha1A (h)): -8%; perc_inhibition (% inhibition of the binding of a ligand specific for each target) (A2A (h)): -14%; fu (Protein binding; [4]): 0.039; perc_inhibition: % inhibition of control enzyme activity, Lck kinase (h) (Lck kinase (h)): 4%; perc_inhibition: % inhibition of control enzyme activity, PDE3A (h) (PDE3A (h)): 52%; perc_inhibition (% inhibition of the binding of a ligand specific for each target) [1]: -12%; perc_inhibition (% inhibition of the binding of a ligand specific for each target) (D2S (h)): -1%; perc_inhibition_rest_state (NaV1.5; NaV1.5, rest state): 18.0%; IC50 (NaV1.5; [9]): > 30 µM; perc_inhibition_use_dep_block (NaV1.5; NaV1.5, use dependent block): 16.0%; IC50 (NaV1.5; [10]): > 30 µM; clint [2]: < 3.0 uL/min/1E6 cells; t_half [2]: > 231.0 min
COc1ccc([C@H](Cc2nnn[nH]2)NC(=O)c2ncnc3[nH]ccc23)cc1 [ASAP-0015381]	-3%	89.4%	10.6%	90.64%	0.061	93.9%	6.07%	101.6%	0.01	99.0%	1.01%	102.0%	0.306	69.4%	30.6%	84.29%	0.047	95.3%	4.69%	100.2%	perc_inhibition (% inhibition of the binding of a ligand specific for each target) (H2 (h)): -24%; perc_inhibition: % inhibition of control enzyme activity, COX2(h) (COX2(h)): -1%; perc_inhibition (% inhibition of the binding of a ligand specific for each target) (alpha1A (h)): -7%; perc_inhibition (% inhibition of the binding of a ligand specific for each target) (A2A (h)): -13%; fu (Protein binding; [4]): 0.106; perc_inhibition: % inhibition of control enzyme activity, Lck kinase (h) (Lck kinase (h)): 4%; perc_inhibition: % inhibition of control enzyme activity, PDE3A (h) (PDE3A (h)): 62%; perc_inhibition (% inhibition of the binding of a ligand specific for each target) [1]: -22%; perc_inhibition (% inhibition of the binding of a ligand specific for each target) (D2S (h)): -4%; perc_inhibition_rest_state (NaV1.5; NaV1.5, rest state): 9.0%; IC50 (NaV1.5; [9]): > 30 µM; perc_inhibition_use_dep_block (NaV1.5; NaV1.5, use dependent block): 8.0%; IC50 (NaV1.5; [10]): > 30 µM; clint [2]: < 3.0 uL/min/1E6 cells; t_half [2]: > 231.0 min
